Experiments:
[1] = molecular target: T1, NTRK1 (Homo sapiens, UniProt P04629); test: Kinobeads competition binding: NTRK1; conditions: target NTRK1
T1 construct: endogenous in cells

[2] = molecular target: T2, LATS1 (Homo sapiens, UniProt O95835); test: Kinobeads competition binding: LATS1; conditions: target LATS1
T2 construct: endogenous in cells
T2 sequence (O95835 1-1130): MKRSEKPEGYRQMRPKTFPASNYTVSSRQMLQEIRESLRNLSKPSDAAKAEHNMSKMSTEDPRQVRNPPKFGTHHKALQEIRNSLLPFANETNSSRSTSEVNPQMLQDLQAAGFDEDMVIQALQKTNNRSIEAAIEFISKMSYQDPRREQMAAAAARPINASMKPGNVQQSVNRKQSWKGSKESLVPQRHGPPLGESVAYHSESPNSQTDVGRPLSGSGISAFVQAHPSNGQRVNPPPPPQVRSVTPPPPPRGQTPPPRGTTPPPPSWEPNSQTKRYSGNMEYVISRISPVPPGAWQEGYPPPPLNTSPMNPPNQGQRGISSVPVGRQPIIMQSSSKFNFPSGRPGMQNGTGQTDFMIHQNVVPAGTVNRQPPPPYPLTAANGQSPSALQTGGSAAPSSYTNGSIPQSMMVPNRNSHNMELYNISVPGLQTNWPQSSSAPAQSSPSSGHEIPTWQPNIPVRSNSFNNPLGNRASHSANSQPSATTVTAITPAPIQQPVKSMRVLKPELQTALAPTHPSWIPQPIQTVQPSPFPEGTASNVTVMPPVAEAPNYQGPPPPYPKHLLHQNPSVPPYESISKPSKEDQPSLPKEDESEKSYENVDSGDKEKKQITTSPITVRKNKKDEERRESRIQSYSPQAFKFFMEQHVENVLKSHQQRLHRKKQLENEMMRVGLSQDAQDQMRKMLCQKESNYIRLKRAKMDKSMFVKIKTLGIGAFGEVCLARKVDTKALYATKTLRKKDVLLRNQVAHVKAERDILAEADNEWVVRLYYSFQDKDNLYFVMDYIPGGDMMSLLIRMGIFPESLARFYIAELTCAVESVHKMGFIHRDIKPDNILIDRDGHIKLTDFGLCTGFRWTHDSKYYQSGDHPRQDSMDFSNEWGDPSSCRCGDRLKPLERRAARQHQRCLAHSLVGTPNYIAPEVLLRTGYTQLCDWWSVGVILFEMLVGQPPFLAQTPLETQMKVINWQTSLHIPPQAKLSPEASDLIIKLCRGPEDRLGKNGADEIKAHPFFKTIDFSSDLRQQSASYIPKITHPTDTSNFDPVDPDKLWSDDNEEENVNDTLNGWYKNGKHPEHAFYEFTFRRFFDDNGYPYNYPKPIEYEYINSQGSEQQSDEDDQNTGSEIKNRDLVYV
Source text: Supplement 41589_2023_1459_MOESM4_ESM.xlsx, sheet "CATDS matrix" | column: LATS1

[3] = system: NQO2; test: Kinobeads competition binding: NQO2; set-up: species or system human; conditions: target NQO2
[4] = system: MAPK1; test: Kinobeads competition binding: MAPK1; set-up: species or system human; conditions: target MAPK1
[5] = system: NEK3; test: Kinobeads competition binding: NEK3; set-up: species or system human; conditions: target NEK3
[6] = system: MAP3K4; test: Kinobeads competition binding: MAP3K4; set-up: species or system human; conditions: target MAP3K4;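 further: target engagement share of this target among all targets at its Kdapp concentration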
[7] = system: DNAJA1; test: Kinobeads competition binding: DNAJA1; set-up: species or system human; conditions: target DNAJA1;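 further: share of total target engagement due to this protein at one drug concentration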
[8] = molecular target: T3, PHKG2 (Homo sapiens, UniProt P15735); test: Kinobeads competition binding: PHKG2; conditions: target PHKG2
T3 construct: a mixture of lysates from five cancer cell lines; endogenous in cells
T3 sequence (P15735 1-406): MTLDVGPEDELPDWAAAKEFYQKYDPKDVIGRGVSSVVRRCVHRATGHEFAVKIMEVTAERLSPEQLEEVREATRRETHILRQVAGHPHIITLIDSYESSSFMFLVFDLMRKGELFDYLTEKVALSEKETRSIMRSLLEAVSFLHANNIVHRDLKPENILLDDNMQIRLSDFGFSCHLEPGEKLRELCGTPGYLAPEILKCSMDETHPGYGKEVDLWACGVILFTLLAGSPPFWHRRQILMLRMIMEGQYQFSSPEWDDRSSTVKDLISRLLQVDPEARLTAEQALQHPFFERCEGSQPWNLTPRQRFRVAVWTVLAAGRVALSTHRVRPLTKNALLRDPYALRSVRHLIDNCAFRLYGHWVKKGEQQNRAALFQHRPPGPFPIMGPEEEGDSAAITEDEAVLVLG

[9] = system: LYN; test: Kinobeads competition binding: LYN; set-up: species or system human; conditions: target LYN
[10] = system: CSNK1A1; test: Kinobeads competition binding: CSNK1A1; set-up: species or system human; conditions: target CSNK1A1
[11] = system: MAPK10; test: Kinobeads competition binding: MAPK10; set-up: species or system human; conditions: target MAPK10
[12] = molecular target: T4, DAPK3 (Homo sapiens, UniProt O43293); test: Kinobeads competition binding: DAPK3; conditions: target DAPK3;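 further: share of all-target engagement taken by this protein at its own Kdapp concentration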
T4 construct: endogenous in cells
T4 sequence (O43293 whole entry): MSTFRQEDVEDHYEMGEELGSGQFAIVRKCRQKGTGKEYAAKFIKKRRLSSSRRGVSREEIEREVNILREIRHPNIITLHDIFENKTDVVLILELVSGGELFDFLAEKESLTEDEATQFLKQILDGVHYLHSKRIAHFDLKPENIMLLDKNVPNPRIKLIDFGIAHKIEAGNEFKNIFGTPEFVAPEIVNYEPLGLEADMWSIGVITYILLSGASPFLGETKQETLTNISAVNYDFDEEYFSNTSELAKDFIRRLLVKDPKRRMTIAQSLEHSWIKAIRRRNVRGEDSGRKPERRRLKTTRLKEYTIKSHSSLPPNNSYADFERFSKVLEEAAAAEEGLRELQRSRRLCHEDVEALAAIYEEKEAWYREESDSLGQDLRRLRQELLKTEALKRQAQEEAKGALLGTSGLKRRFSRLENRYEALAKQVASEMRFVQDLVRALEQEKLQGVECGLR

[13] = molecular target: T5, EPHA7 (Homo sapiens, UniProt Q15375); test: Kinobeads competition binding: EPHA7; conditions: target EPHA7
T5 construct: endogenous in cells
T5 sequence (Q15375 28-998): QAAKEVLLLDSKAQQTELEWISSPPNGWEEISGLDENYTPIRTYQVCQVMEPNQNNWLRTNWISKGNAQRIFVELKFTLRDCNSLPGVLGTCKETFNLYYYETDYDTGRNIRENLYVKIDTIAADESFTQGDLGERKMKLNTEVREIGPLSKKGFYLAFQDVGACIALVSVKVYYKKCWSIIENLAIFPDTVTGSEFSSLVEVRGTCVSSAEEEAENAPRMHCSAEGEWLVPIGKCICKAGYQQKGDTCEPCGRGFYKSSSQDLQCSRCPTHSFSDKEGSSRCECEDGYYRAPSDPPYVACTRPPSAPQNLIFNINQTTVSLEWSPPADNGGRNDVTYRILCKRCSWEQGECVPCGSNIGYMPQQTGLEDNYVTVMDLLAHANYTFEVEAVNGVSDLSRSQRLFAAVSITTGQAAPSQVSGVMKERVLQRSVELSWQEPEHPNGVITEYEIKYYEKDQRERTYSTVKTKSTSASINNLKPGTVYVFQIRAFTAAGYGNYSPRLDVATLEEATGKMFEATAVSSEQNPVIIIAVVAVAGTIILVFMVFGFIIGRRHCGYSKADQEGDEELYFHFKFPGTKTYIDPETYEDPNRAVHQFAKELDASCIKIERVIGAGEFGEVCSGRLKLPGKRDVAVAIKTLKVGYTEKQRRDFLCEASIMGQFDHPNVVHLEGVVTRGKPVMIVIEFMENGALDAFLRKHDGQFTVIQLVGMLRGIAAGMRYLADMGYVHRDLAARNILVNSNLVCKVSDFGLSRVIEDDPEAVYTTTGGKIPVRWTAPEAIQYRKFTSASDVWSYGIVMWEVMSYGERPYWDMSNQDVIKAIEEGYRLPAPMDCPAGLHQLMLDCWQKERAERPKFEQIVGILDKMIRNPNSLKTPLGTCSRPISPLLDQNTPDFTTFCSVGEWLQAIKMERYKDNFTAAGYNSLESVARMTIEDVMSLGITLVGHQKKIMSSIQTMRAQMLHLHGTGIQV
Source text: Supplement 41589_2023_1459_MOESM4_ESM.xlsx, sheet "CATDS matrix" | column: EPHA7

[14] = system: MAPK8; test: Kinobeads competition binding: MAPK8; set-up: species or system human; conditions: target MAPK8
[15] = molecular target: T6, ABL2 (Homo sapiens, UniProt P42684); test: Kinobeads competition binding: ABL2; conditions: target ABL2
T6 construct: endogenous in cells
T6 sequence (P42684 whole entry): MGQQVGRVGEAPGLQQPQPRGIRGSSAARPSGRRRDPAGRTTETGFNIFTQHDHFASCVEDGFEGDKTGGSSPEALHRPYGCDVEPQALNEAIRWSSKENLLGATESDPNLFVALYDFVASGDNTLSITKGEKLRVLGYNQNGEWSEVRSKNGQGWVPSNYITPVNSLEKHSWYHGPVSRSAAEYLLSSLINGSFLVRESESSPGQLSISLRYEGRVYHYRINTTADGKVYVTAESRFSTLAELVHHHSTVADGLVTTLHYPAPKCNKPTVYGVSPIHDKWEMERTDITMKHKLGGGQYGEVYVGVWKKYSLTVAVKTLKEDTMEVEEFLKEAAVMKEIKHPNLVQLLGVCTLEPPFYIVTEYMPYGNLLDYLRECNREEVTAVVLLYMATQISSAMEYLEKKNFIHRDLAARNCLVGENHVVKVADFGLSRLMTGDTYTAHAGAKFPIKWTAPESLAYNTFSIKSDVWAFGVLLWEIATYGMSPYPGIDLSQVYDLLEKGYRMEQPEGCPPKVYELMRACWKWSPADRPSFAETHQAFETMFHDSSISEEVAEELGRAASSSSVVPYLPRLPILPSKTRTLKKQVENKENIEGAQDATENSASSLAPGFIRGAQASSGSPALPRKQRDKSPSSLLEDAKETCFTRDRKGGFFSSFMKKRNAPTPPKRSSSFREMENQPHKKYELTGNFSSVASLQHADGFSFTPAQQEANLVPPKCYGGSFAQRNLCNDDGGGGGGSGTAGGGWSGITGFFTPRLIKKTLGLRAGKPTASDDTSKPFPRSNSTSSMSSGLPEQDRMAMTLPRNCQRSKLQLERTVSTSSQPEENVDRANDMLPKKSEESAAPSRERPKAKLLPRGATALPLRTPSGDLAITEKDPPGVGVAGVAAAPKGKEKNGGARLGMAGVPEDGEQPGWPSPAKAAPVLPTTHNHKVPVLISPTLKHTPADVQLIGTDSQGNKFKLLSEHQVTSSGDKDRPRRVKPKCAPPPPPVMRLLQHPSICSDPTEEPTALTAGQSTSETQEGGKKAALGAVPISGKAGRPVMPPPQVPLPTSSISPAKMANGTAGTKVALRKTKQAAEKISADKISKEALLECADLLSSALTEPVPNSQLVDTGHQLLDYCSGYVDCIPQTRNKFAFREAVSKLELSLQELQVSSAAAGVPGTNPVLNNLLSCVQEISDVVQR

[16] = system: MAP2K2; test: Kinobeads competition binding: MAP2K2; set-up: species or system human; conditions: target MAP2K2
[17] = system: ARAF; test: Kinobeads competition binding: ARAF; set-up: species or system human; conditions: target ARAF
[18] = system: ERBB3; test: Kinobeads competition binding: ERBB3; set-up: species or system human; conditions: target ERBB3;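 further: selectivity score: engagement of this protein divided by summed engagement of all targets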
[19] = molecular target: T7, ERN1 (Homo sapiens, UniProt O75460); test: Kinobeads competition binding: ERN1; conditions: target ERN1
T7 construct: endogenous in cells
T7 sequence (O75460 19-977): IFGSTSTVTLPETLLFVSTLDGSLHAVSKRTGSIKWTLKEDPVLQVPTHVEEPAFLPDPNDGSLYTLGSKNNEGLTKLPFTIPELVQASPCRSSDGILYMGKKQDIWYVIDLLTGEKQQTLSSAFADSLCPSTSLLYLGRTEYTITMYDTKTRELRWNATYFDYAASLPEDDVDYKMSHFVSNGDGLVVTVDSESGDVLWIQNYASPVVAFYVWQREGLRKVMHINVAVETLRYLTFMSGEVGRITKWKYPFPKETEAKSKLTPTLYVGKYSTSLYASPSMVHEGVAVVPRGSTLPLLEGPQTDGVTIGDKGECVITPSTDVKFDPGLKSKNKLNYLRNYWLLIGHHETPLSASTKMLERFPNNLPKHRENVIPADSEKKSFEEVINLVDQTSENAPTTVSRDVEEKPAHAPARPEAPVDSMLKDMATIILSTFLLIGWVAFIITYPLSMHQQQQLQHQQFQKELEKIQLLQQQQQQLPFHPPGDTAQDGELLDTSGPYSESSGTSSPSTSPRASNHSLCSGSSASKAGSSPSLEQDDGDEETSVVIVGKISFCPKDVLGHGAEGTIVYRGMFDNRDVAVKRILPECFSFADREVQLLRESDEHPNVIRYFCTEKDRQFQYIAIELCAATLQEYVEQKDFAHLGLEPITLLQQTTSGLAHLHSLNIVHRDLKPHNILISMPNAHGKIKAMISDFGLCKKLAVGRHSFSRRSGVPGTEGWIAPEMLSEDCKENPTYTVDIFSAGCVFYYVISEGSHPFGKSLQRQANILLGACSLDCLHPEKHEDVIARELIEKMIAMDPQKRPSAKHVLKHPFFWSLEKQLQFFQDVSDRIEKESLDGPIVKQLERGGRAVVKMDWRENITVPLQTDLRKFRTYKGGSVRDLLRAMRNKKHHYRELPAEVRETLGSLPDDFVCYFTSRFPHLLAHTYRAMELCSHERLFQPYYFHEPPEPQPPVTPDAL
Source text: Supplement 41589_2023_1459_MOESM4_ESM.xlsx, sheet "CATDS matrix" | column: ERN1

[20] = system: NEK9; test: Kinobeads competition binding: NEK9; set-up: species or system human; conditions: target NEK9
[21] = system: FLAD1; test: Kinobeads competition binding: FLAD1; set-up: species or system human; conditions: target FLAD1;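 further: selectivity score: engagement of this protein divided by summed engagement of all targets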

Measured: CATDS

T1 sequence (P04629 33-796): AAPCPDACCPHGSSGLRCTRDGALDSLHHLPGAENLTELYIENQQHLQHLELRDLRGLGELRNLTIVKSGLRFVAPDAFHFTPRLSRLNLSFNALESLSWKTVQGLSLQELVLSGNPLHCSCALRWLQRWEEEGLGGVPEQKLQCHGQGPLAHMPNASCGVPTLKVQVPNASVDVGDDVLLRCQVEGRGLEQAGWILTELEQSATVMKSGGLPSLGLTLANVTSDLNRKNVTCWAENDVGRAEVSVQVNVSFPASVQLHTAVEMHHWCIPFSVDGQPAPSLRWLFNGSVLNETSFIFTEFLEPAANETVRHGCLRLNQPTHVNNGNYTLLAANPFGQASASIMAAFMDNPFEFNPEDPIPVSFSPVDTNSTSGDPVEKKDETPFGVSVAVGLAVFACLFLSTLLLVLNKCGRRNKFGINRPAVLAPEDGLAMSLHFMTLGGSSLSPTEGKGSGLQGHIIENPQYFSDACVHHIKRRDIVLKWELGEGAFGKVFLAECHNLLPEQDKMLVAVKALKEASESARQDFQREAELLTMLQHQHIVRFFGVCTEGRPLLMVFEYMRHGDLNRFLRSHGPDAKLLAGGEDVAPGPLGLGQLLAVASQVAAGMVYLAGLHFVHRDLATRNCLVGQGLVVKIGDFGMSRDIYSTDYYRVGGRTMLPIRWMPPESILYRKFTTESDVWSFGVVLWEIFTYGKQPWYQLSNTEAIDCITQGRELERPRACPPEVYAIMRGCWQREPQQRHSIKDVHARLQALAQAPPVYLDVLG

Nc1ncnc2[nH]c(-c3ccccc3)nc12 [AH5015_KCGS]
0: all assays above

CCN1CCN(Cc2ccc(Nc3ncc(F)c(-c4cc(F)c5nc(C)n(C(C)C)c5c4)n3)nc2)CC1 [Abemaciclib]
0: all assays above

CN(C)C/C=C/C(=O)Nc1cc2c(Nc3ccc(F)c(Cl)c3)ncnc2cc1O[C@H]1CCOC1 [Afatinib]
0: [2] | [3] | [7] | [13] | [17] | [19] | [21]

CCc1cc2c(cc1N1CCC(N3CCOCC3)CC1)C(C)(C)c1[nH]c3cc(C#N)ccc3c1C2=O [Alectinib]
0: all assays above

N#CC1(c2ccc(NC(=O)c3cccnc3NCc3ccncc3)cc2)CCCC1 [Apatinib]
0: all assays above

From article PMC11062922 (Nature Chemical Biology, 2023)
